Converted amounts (≈) assume the structure as drawn.

Results on eight molecules are retold here after ChEMBL document CHEMBL1138545, “Synthesis and antimicrobial activities of some new triazolothiadiazoles bearing 4-methylthiobenzyl moiety” (2009).

Assay [1] concerns Escherichia coli. Nature of the assay: Antibacterial activity against Escherichia coli ATTC 25922 after 24 hrs by the disk diffusion method. The assay is classed as functional. Conditions: for MIC: Escherichia coli, ATTC 25922, 24 h. On the technique in general: Agar diffusion results depend on both activity and mobility in agar.
Assay [2] relates to Staphylococcus aureus. Nature of the assay: Antibacterial activity against Staphylococcus aureus ATTC […] after 24 hrs by the disk diffusion method. The format is functional. Conditions: for MIC: Staphylococcus aureus, 24 h.
The test system of assay [3] is Pseudomonas aeruginosa. Description: Antibacterial activity against Pseudomonas aeruginosa ATTC 27853 after 24 hrs by the disk diffusion method. Conditions: for MIC: Pseudomonas aeruginosa, ATTC 27853, 24 h. The assay is classed as functional.
Assay [4] concerns Klebsiella pneumoniae. Description: Antibacterial activity against Klebsiella pneumoniae after 24 hrs by the disk diffusion method. Conditions: for MIC: Klebsiella pneumoniae, 24 h. The format is functional.
The next assay concerns Candida albicans. Description: Antifungal activity against Candida albicans NICM 300 after 3 to days by serial plate dilution method. The assay is classed as functional. Conditions: for MIC: Candida albicans, NICM 300.
The test system of another assay is Aspergillus fumigatus. Nature of the assay: Antifungal activity against Aspergillus fumigatus NICM 902 after 3 to days by serial plate dilution method. The assay is classed as functional. Conditions: for MIC: Aspergillus fumigatus, NICM 902.
The subject of the next assay is Aspergillus flavus. Description: Antifungal activity against Aspergillus flavus NICM 524 after 3 to days by serial plate dilution method. The assay is classed as functional. Conditions: for MIC: Aspergillus flavus, NICM 524.
Assay [5] concerns Trichophyton mentagrophytes. Nature of the assay: Antifungal activity against Trichophyton mentagrophytes after 3 to days by serial plate dilution method. Conditions: for MIC: Trichophyton mentagrophytes. The assay is classed as functional.
Assay [6] has as its system Klebsiella pneumoniae. Nature of the assay: Antibacterial activity against Klebsiella pneumoniae at 10 ug/mL after 24 hrs by the disk diffusion method. The assay is classed as functional.
Assay [7] relates to Escherichia coli. Nature of the assay: microbe, parasite or virus in culture. Conditions: ATTC 25922, 24 h.
Description: Antibacterial activity against Escherichia coli ATTC 25922 at 10 ug/mL after 24 hrs by the disk diffusion method
The subject of assay [8] is Staphylococcus aureus. Description: microbe, parasite or virus in culture. Conditions: ATTC 25922, 24 h.
Description: Antibacterial activity against Staphylococcus aureus ATTC 25922 at 10 ug/mL after 24 hrs by the disk diffusion method
Assay [9] has as its system Pseudomonas aeruginosa. Nature of the assay: microbe, parasite or virus in culture. Conditions: ATTC 27853, 24 h, read-out: IZ.
Description: Antibacterial activity against Pseudomonas aeruginosa ATTC 27853 at 10 ug/mL after 24 hrs by the disk diffusion method

In the case of `CSc1ccc(Cc2nnc3sc(-c4ccc(-c5ccc(Cl)cc5)o4)nn23)cc1`, the “inhibition zone (IZ)” value in the assay on Escherichia coli [1] was 20 mm; with Staphylococcus aureus [2] it was 18 mm; in the assay on Pseudomonas aeruginosa [3], 18 mm; in the assay on Klebsiella pneumoniae [4], 22 mm. For the same molecule, the MIC against Escherichia coli [1] was found to be 6 µg/mL (≈ 13.7 µM); in the assay with Staphylococcus aureus [2] it was 12.5 µg/mL (≈ 28.5 µM); in the assay with Pseudomonas aeruginosa [3] it was 6 µg/mL (≈ 13.7 µM); in the assay with Klebsiella pneumoniae [4], 12.5 µg/mL (≈ 28.5 µM); in the assay on Candida albicans it was 25 µg/mL (≈ 57 µM); in the assay on Aspergillus fumigatus, 12.5 µg/mL (≈ 28.5 µM). For the same molecule, the MIC (against Aspergillus flavus; in assay [5]) was 25 µg/mL (≈ 57 µM) throughout. Moreover, the “diameter of the inhibition zone (DIZ)” value in the assay with Candida albicans came to 12 mm; with Aspergillus fumigatus, 17 mm; in the assay with Aspergillus flavus, 10 mm; in [5] it was 16 mm.

Regarding `CSc1ccc(Cc2nnc3sc(-c4ccc(-c5ccc(C)cc5)o4)nn23)cc1`, the “inhibition zone (IZ)” value in the assay with Escherichia coli [1] is 18 mm; in the assay with Staphylococcus aureus [2], 18 mm; with Pseudomonas aeruginosa [3] it was 18 mm; in the assay with Klebsiella pneumoniae [4], 23 mm. Moreover, the MIC against Escherichia coli [1] was determined as 6 µg/mL (≈ 14.3 µM); in the assay with Staphylococcus aureus [2], 12.5 µg/mL (≈ 29.9 µM); against Pseudomonas aeruginosa [3] it was 6 µg/mL (≈ 14.3 µM); with Klebsiella pneumoniae [4], 6 µg/mL (≈ 14.3 µM); in the assay on Candida albicans it was 25 µg/mL (≈ 59.7 µM); in the assay with Aspergillus fumigatus, 12.5 µg/mL (≈ 29.9 µM). Besides, the MIC against Aspergillus flavus was determined as 25 µg/mL (≈ 59.7 µM); in assay [5], 12.5 µg/mL (≈ 29.9 µM). Also, the “diameter of the inhibition zone (DIZ)” value in the assay with Candida albicans worked out at 14 mm; in the assay on Aspergillus fumigatus, 21 mm; in the assay with Aspergillus flavus, 11 mm; in assay [5], 17 mm.

For `CSc1ccc(Cc2nnc3sc(-c4ccc(-c5ccc(Br)cc5)o4)nn23)cc1`, the “inhibition zone (IZ)” value with Escherichia coli [1] was found to be 11 mm; in the assay on Staphylococcus aureus [2], 12 mm; in the assay on Pseudomonas aeruginosa [3], 11 mm; with Klebsiella pneumoniae [4], 15 mm. Moreover, the MIC worked out at 25 µg/mL (≈ 51.7 µM) against Escherichia coli [1]; 25 µg/mL (≈ 51.7 µM) in the assay with Staphylococcus aureus [2]; 25 µg/mL (≈ 51.7 µM) in the assay with Pseudomonas aeruginosa [3]; 25 µg/mL (≈ 51.7 µM) with Klebsiella pneumoniae [4]; 6 µg/mL (≈ 12.4 µM) with Candida albicans; 6 µg/mL (≈ 12.4 µM) in the assay on Aspergillus fumigatus. Besides, the MIC in the assay on Aspergillus flavus worked out at 12.5 µg/mL (≈ 25.9 µM); in assay [5], 6 µg/mL (≈ 12.4 µM). For the same molecule, the “diameter of the inhibition zone (DIZ)” value in the assay on Candida albicans was 18 mm; with Aspergillus fumigatus, 20 mm; in the assay on Aspergillus flavus, 17 mm; in [5], 20 mm.

Regarding `COc1ccc(-c2ccc(-c3nn4c(Cc5ccc(SC)cc5)nnc4s3)o2)cc1`, the “inhibition zone (IZ)” value in the assay on Escherichia coli [1] is given as 16 mm; in the assay on Staphylococcus aureus [2] it was 14 mm; in the assay on Pseudomonas aeruginosa [3] it was 17 mm; in the assay with Klebsiella pneumoniae [4], 18 mm. The MIC against Escherichia coli [1] turned out to be 12.5 µg/mL (≈ 28.8 µM); in the assay with Staphylococcus aureus [2] it was 25 µg/mL (≈ 57.5 µM); against Pseudomonas aeruginosa [3], 12.5 µg/mL (≈ 28.8 µM); in the assay with Klebsiella pneumoniae [4], 12.5 µg/mL (≈ 28.8 µM); against Candida albicans it was 25 µg/mL (≈ 57.5 µM); with Aspergillus fumigatus, 6 µg/mL (≈ 13.8 µM). In addition, the MIC against Aspergillus flavus was determined as 12.5 µg/mL (≈ 28.8 µM); in assay [5], 6 µg/mL (≈ 13.8 µM). Moreover, the “diameter of the inhibition zone (DIZ)” value in the assay with Candida albicans amounted to 10 mm; in the assay with Aspergillus fumigatus it was 22 mm; with Aspergillus flavus it was 18 mm; in assay [5], 18 mm.

Turning to `CSc1ccc(Cc2nnc3sc(-c4ccc(-c5ccc([N+](=O)[O-])cc5)o4)nn23)cc1`, the “inhibition zone (IZ)” value in the assay with Escherichia coli [1] was found to be 17 mm; in the assay on Staphylococcus aureus [2] it was 16 mm; with Pseudomonas aeruginosa [3], 10 mm; in the assay on Klebsiella pneumoniae [4] it was 20 mm. The MIC stood at 25 µg/mL (≈ 55.6 µM) in the assay with Escherichia coli [1]; 25 µg/mL (≈ 55.6 µM) against Staphylococcus aureus [2]; 25 µg/mL (≈ 55.6 µM) against Pseudomonas aeruginosa [3]; 12.5 µg/mL (≈ 27.8 µM) in the assay with Klebsiella pneumoniae [4]; 12.5 µg/mL (≈ 27.8 µM) with Candida albicans; 25 µg/mL (≈ 55.6 µM) against Aspergillus fumigatus. Further, the MIC (in the assay on Aspergillus flavus; in [5]) was 25 µg/mL (≈ 55.6 µM) throughout. In addition, the “diameter of the inhibition zone (DIZ)” value with Candida albicans is listed as 17 mm; with Aspergillus fumigatus, 14 mm; with Aspergillus flavus, 11 mm; in assay [5], 11 mm.

With `COc1ccc(-c2ccc(-c3nn4c(Cc5ccc(SC)cc5)nnc4s3)o2)c([N+](=O)[O-])c1`, the “inhibition zone (IZ)” value was 13 mm in the assay with Escherichia coli [1], 12 mm in the assay with Staphylococcus aureus [2], 12 mm with Pseudomonas aeruginosa [3] and 21 mm with Klebsiella pneumoniae [4]. The MIC against Escherichia coli [1] was found to be 25 µg/mL (≈ 52.1 µM); with Staphylococcus aureus [2], 25 µg/mL (≈ 52.1 µM); against Pseudomonas aeruginosa [3], 25 µg/mL (≈ 52.1 µM); in the assay on Klebsiella pneumoniae [4] it was 6 µg/mL (≈ 12.5 µM); against Candida albicans it was 25 µg/mL (≈ 52.1 µM); with Aspergillus fumigatus, 12.5 µg/mL (≈ 26.1 µM). Also, the MIC (in the assay on Aspergillus flavus; in assay [5]) was 25 µg/mL (≈ 52.1 µM) in each case. In addition, the “diameter of the inhibition zone (DIZ)” value in the assay with Candida albicans was found to be 17 mm; in the assay with Aspergillus fumigatus, 19 mm; in the assay on Aspergillus flavus, 12 mm; in assay [5], 15 mm.

Take `CSc1ccc(Cc2nnc3sc(-c4ccc(-c5cc(Cl)ccc5Cl)o4)nn23)cc1`: the “inhibition zone (IZ)” value with Escherichia coli [1] was determined as 16 mm; in the assay on Staphylococcus aureus [2] it was 16 mm; with Pseudomonas aeruginosa [3], 18 mm; in the assay on Klebsiella pneumoniae [4], 20 mm. The MIC against Escherichia coli [1] amounted to 12.5 µg/mL (≈ 26.4 µM); in the assay on Staphylococcus aureus [2], 25 µg/mL (≈ 52.8 µM); against Pseudomonas aeruginosa [3] it was 6 µg/mL (≈ 12.7 µM); against Klebsiella pneumoniae [4] it was 12.5 µg/mL (≈ 26.4 µM); in the assay with Candida albicans, 6 µg/mL (≈ 12.7 µM); in the assay on Aspergillus fumigatus it was 25 µg/mL (≈ 52.8 µM). Besides, the MIC in the assay on Aspergillus flavus amounted to 6 µg/mL (≈ 12.7 µM); in [5], 12.5 µg/mL (≈ 26.4 µM). Also, the “diameter of the inhibition zone (DIZ)” value with Candida albicans was 20 mm; with Aspergillus fumigatus it was 13 mm; with Aspergillus flavus, 18 mm; in assay [5], 17 mm.

For `O=C(O)c1cn(C2CC2)c2cc(N3CCNCC3)c(F)cc2c1=O` [CIPROFLOXACIN], the MIC in the assay on Klebsiella pneumoniae [6] is 6 µg/mL (≈ 18.1 µM); against Escherichia coli [7] it was 6 µg/mL (≈ 18.1 µM); against Staphylococcus aureus [8] it was 12.5 µg/mL (≈ 37.7 µM). For the same molecule, the zone of inhibition at 10 µg/mL amounted to 25 mm in the assay on Klebsiella pneumoniae [6] (read-out: IZ), 19 mm with Staphylococcus aureus [8] (read-out: IZ) and 18 mm in the assay with Pseudomonas aeruginosa [9].
